Data from patent US20060264460A1 (Wyeth, priority 2005, published 2006).

Target: T1, human Cot/Tpl2 kinase (Homo sapiens, UniProt P41279)
T1 construct: human Cot/Tpl2 kinase construct encoding residues 30-398; 6His (N); made in house; host or cells: Sf9 insect cells, baculovirus system (BD Biosciences)
Assay: Tpl2/Cot kinase assay: GST-MEK1 phosphorylation detected by ELISA (DELFIA Eu)
Type: biochemical
Settings: 0.4 nM Tpl2, 35 nM GST-MEK1, 50 uM ATP, 1 h at 30° C.
Protocol: Sf9 cells expressing the kinase were lysed in 50 mM NaPhosphate pH=8; 300 mM NaCl; 5 mM imidazole; 0.1 mM EGTA; 25 mM beta-glycerophosphate; 1% TX-100, 1% glycerol; 6 mM beta-mercaptoethanol and protease inhibitors. The lysate was clarified by centrifugation and was loaded onto a Ni-Sepharose column. The column was washed with 50 mM NaPhosphate pH=8; 300 mM NaCl; 15 mM imidazole; 1% glycerol; and 6 mM beta-mercaptoethanol. His-Tpl2 was eluted with 50 mM NaPhosphate pH=8; 300 mM NaCl; 250 mM imidazole; 1% glycerol; and 6 mM beta-mercaptoethanol. The eluted protein was further purified by size exclusion chromatography. Fractions corresponding to monomeric Tpl2 were then used in the assay.
Tpl2/Cot activity was directly assayed using GST-MEK1 as a substrate. GST-MEK1 phosphorylation on serine residues 217 and 221 was detected by ELISA. 0.4 nM Tpl2 was incubated with 35 nM GST-MEK1 in a kinase reaction buffer containing 20 mM MOPS pH=7.2; 50 uM ATP; 20 mM MgCl2; 1 mM DTT; 25 mM β-glycerophosphate; 5 mM EGTA; and 1 mM sodium orthovanadate for 1 h at 30° C. The compounds of the inventions solubilized in 100% DMSO were pre-diluted in assay buffer so that the final concentration of DMSO in the reaction was 1%. The kinase reaction was carried out in 100 ul volume on 96 well plates. The kinase reaction was then stopped with the addition of 100 mM EDTA. […] After a 1 hour incubation at room temperature, the detection plate was washed 4 times with TBST (TBS+0.05% Tween 20) and then incubated for another hour at room temperature with anti phospho-MEK1 antibody (Cell Signaling) 1:1000 in 10 mM MOPS 7.5; 150 mM NaCl; 0.05% Tween 20; 0.1% Gelatin; 0.02% NaN3; and 1% BSA. The detection plate was washed again and incubated for 30 min with DELFIA Europium (Eu) labeled goat anti-rabbit IgG (Perkin-Elmer), 1:4000 in the same buffer used for the primary incubation. After a final wash, Eu detection solution was added to each well and the Eu signal was measured in a Wallac Victor^2 Multilabel Counter. IC50 calculations were performed using the XLfit software package (IDBS, Guildford, UK).

T1 sequence (P41279 30-398): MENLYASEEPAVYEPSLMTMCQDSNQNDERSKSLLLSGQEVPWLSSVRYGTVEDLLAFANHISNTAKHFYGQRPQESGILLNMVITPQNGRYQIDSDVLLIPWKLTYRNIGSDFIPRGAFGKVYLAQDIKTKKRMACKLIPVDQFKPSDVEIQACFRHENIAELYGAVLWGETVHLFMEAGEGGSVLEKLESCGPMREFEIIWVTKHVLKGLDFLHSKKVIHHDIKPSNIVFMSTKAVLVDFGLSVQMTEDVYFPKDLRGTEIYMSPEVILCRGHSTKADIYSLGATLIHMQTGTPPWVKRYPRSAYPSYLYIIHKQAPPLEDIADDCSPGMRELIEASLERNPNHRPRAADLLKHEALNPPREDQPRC

IC50 [nM] | SMILES
> 40000 | N#Cc1cnc2ccc(NCC3CCNC3)cc2c1Nc1ccc(F)c(Cl)c1 (stereo not shown) [Example 62, 4-(3-Chloro-4-fluoro-phenylamino)-6-[(pyrrolidin-3-ylmethyl)-amino]-quinoline-3-carbonitrile]
> 40000 | CC(C)(C)OC(=O)N1CCCC(CNc2ccc3ncc(C#N)c(Nc4ccc(F)c(Cl)c4)c3c2)C1 (stereo not shown) [Example 63, 3-{[4-(3-Chloro-4-fluoro-phenylamino)-3-cyano-quinolin-6-ylamino]-methyl}-piperidine-1-carboxylic acid tert-butyl ester]
> 40000 | N#Cc1cnc2ccc(NCC3CCCNC3)cc2c1Nc1ccc(F)c(Cl)c1 (stereo not shown) [Example 64, 4-(3-Chloro-4-fluoro-phenylamino)-6-[(piperidin-3-ylmethyl)-amino]-quinoline-3-carbonitrile]
> 40000 | N#Cc1cnc2ccc(NCc3ccccc3)cc2c1Nc1ccc(N2CCOCC2)cc1 [Example 66, 6-(benzylamino)-4-(4-morpholinophenylamino)quinoline-3-carbonitrile]
11000 | CN(C)C(=O)c1cc(NCCN2CCOCC2)cc2c(Nc3cccc(Cl)c3)c(C#N)cnc12 [Example 68, 4-(3-chlorophenylamino)-3-cyano-N,N-dimethyl-6-(2-morpholinoethylamino)quinoline-8-carboxamide]
420 | N#Cc1cnc2c(Br)cc(NCCN3CCOCC3)cc2c1Nc1cccc(Cl)c1 [Example 69, 8-bromo-4-(3-chlorophenylamino)-6-(2-morpholinoethylamino)quinoline-3-carbonitrile]
36 | N#Cc1cnc2c(Br)cc(NCc3cccnc3)cc2c1Nc1cccc(Cl)c1 [Example 70, 8-bromo-4-(3-chlorophenylamino)-6-(pyridin-3-ylmethylamino)quinoline-3-carbonitrile]
400 | CN(C)C(=O)c1cc(NCc2cccnc2)cc2c(Nc3cccc(Cl)c3)c(C#N)cnc12 [Example 71, 4-(3-chlorophenylamino)-3-cyano-N,N-dimethyl-6-(pyridin-3-ylmethylamino)quinoline-8-carboxamide]
24 | N#Cc1cnc2ccc(NCc3cccnc3)cc2c1Nc1cccc(Cl)c1 [Example 72, 4-(3-chlorophenylamino)-6-(pyridin-3-ylmethylamino)quinoline-3-carbonitrile]
> 40000 | N#Cc1cnc2c(NC(=O)c3ccccc3)cc(NCc3cccnc3)cc2c1Nc1cccc(Cl)c1 [Example 73, N-(4-(3-chlorophenylamino)-3-cyano-6-(pyridin-3-ylmethylamino)quinolin-8-yl)benzamide]
140 | N#Cc1cnc2c(C#N)cc(NCc3cccnc3)cc2c1Nc1cccc(Cl)c1 [Example 74, 4-(3-chlorophenylamino)-6-(pyridin-3-ylmethylamino)quinoline-3,8-dicarbonitrile]
2600 | N#Cc1cnc2c(NC=O)cc(NCc3cccnc3)cc2c1Nc1cccc(Cl)c1 [Example 75, N-(4-(3-chlorophenylamino)-3-cyano-6-(pyridin-3-ylmethylamino)quinolin-8-yl)formamide]
6.8 | N#Cc1cnc2c(Br)cc(NCc3cnc[nH]3)cc2c1Nc1ccc(F)c(Cl)c1 [Example 76, 6-((1H-imidazol-5-yl)methylamino)-8-bromo-4-(3-chloro-4-fluorophenylamino)quinoline-3-carbonitrile]
110 | N#Cc1cnc2c(Br)cc(NCc3cccnc3)cc2c1Nc1ccc(F)c(Cl)c1 [Example 77, 8-bromo-4-(3-chloro-4-fluorophenylamino)-6-(pyridin-3-ylmethylamino) quinoline-3-carbonitrile]
75 | N#Cc1cnc2c(Br)cc(NCc3ccccn3)cc2c1Nc1ccc(F)c(Cl)c1 [Example 78, 8-bromo-4-(3-chloro-4-fluorophenylamino)-6-(pyridin-2-ylmethylamino)quinoline-3-carbonitrile]
570 | N#Cc1cnc2c(I)cc(NCc3cccnc3)cc2c1Nc1cccc(Cl)c1 [Example 79, 4-(3-chlorophenylamino)-8-iodo-6-(pyridin-3-ylmethylamino)quinoline-3-carbonitrile]

IC50 [nM] | SMILES
> 40000 | N#Cc1cnc2c(C(=O)NCc3ccccc3)cc(NCc3cccnc3)cc2c1Nc1cccc(Cl)c1 [Example 80, N-benzyl-4-(3-chlorophenylamino)-3-cyano-6-(pyridin-3-ylmethylamino)quinoline-8-carboxamide]
> 40000 | CC(C)C(=O)Nc1cc(NCc2cccnc2)cc2c(Nc3cccc(Cl)c3)c(C#N)cnc12 [Example 81, N-(4-(3-chlorophenylamino)-3-cyano-6-(pyridin-3-ylmethylamino)quinolin-8-yl)isobutyramide]
3900 | CN(C)C(=O)c1cc(NCC2CCCCC2)cc2c(Nc3ccc(F)c(Cl)c3)c(C#N)cnc12 [Example 82, 4-(3-chloro-4-fluorophenylamino)-3-cyano-6-(cyclohexylmethylamino)-N,N-dimethylquinoline-8-carboxamide]
63 | CN(C)C(=O)c1cc(NCc2nc3ccccc3n2C)cc2c(Nc3ccc(F)c(Cl)c3)c(C#N)cnc12 [Example 83, 4-(3-chloro-4-fluorophenylamino)-3-cyano-N,N-dimethyl-6-((1-methyl-1H-benzo[d]imidazol-2-yl)methylamino)quinoline-8-carboxamide]
> 40000 | CN(C)C(=O)c1cc(NCc2ccco2)cc2c(Nc3ccc(F)c(Cl)c3)c(C#N)cnc12 [Example 84, 4-(3-chloro-4-fluorophenylamino)-3-cyano-6-(furan-2-ylmethylamino)-N,N-dimethylquinoline-8-carboxamide]
670 | CN(C)C(=O)c1cc(NCc2cccc(C#N)c2)cc2c(Nc3ccc(F)c(Cl)c3)c(C#N)cnc12 [Example 85, 4-(3-chloro-4-fluorophenylamino)-3-cyano-6-(3-cyanobenzylamino)-N,N-dimethylquinoline-8-carboxamide]
1100 | CN(C)C(=O)c1cc(NCc2ccc(C#N)cc2)cc2c(Nc3ccc(F)c(Cl)c3)c(C#N)cnc12 [Example 86, 4-(3-chloro-4-fluorophenylamino)-3-cyano-6-(4-cyanobenzylamino)-N,N-dimethylquinoline-8-carboxamide]
130 | CN(C)C(=O)c1cc(NCc2cnc[nH]2)cc2c(Nc3ccc(F)c(Cl)c3)c(C#N)cnc12 [Example 87, 6-((1H-imidazol-5-yl)methylamino)-4-(3-chloro-4-fluorophenylamino)-3-cyano-N,N-dimethylquinoline-8-carboxamide]
250 | CN(C)C(=O)c1cc(NCc2ccc(CO)o2)cc2c(Nc3ccc(F)c(Cl)c3)c(C#N)cnc12 [Example 88, 4-(3-chloro-4-fluorophenylamino)-3-cyano-6-((5-(hydroxymethyl)furan-2-yl)methylamino)-N,N-dimethylquinoline-8-carboxamide]
290 | CN(C)C(=O)c1cc(NCc2ccn[nH]2)cc2c(Nc3ccc(F)c(Cl)c3)c(C#N)cnc12 [Example 89, 6-((1H-pyrazol-5-yl)methylamino)-4-(3-chloro-4-fluorophenylamino)-3-cyano-N,N-dimethylquinoline-8-carboxamide]
1700 | Cc1cc(CNc2cc(C(=O)N(C)C)c3ncc(C#N)c(Nc4ccc(F)c(Cl)c4)c3c2)n(C)n1 [Example 90, 4-(3-chloro-4-fluorophenylamino)-3-cyano-6-((1,3-dimethyl-1-H-pyrazol-5-yl)methylamino)-N, N-dimethylquinoline-8-carboxamide]
360 | CN(C)C(=O)c1cc(NCc2ccccn2)cc2c(Nc3ccc(F)c(Cl)c3)c(C#N)cnc12 [Example 91, 4-(3-chloro-4-fluorophenylamino)-3-cyano-N,N-dimethyl-6-(pyridin-2-ylmethylamino)quinoline-8-carboxamide]
> 40000 | Cc1cccc(CNc2cc(C(=O)N(C)C)c3ncc(C#N)c(Nc4ccc(F)c(Cl)c4)c3c2)c1 [Example 92, 4-(3-chloro-4-fluorophenylamino)-3-cyano-N,N-dimethyl-6-(3-methylbenzylamino)quinoline-8-carboxamide]
> 40000 | CC(C)NC(=O)c1cc(NCc2cccnc2)cc2c(Nc3ccc(F)c(Cl)c3)c(C#N)cnc12 [Example 93, 4-(3-chloro-4-fluorophenylamino)-3-cyano-N-isopropyl-6-(pyridin-3-ylmethylamino)quinoline-8-carboxamide]
530 | CN(C)C(=O)c1cc(NCc2cccnc2)cc2c(Nc3ccc(F)c(Cl)c3)c(C#N)cnc12 [Example 94, 4-(3-chloro-4-fluorophenylamino)-3-cyano-N,N-dimethyl-6-(pyridin-3-ylmethylamino)quinoline-8-carboxamide]
